In US10765114B2, “4-amino-6-(pyridyl and 2-substitutedphenyl)-picolinates and 6-amino-2-(pyridyl and 2-substitutedphenyl)-pyrimidine-4-carboxylates and their use as herbicides” (Dow AgroSciences LLC, priority 2013, dated 2020):

How the values were obtained:
Assay in all cases: Post-Emergent Test III (Wheat and Barley)
POLCO (wild buckwheat) = type: in vivo, Polygonum convolvulus; conditions: for Visual Growth Reduction (%) 21 Days After Application, POLCO: POLCO wild buckwheat (Polygonum convolvulus), post-emergent
Experimental: (§1) Seeds of the desired test plant species were planted in Sun Gro MetroMix® 306 planting mixture, which typically has a pH of 6.0 to 6.8 and an organic matter content of about 30 percent, in plastic pots with a surface area of 103.2 square centimeters (cm^2). When required to ensure good germination and healthy plants, a fungicide treatment and/or other chemical or physical treatment was applied. The plants were grown for 7-36 days in a greenhouse with an approximate 14 h photoperiod which was maintained at about 18° C. during the day and 17° C. during the night. Nutrients and water were added on a regular basis and supplemental lighting was provided with overhead metal halide 1000-Watt lamps as necessary. The plants were employed for testing when they reached the second or third true leaf stage.
(§2) A weighed amount, determined by the highest rate to be tested, of each test compound was placed in a 25 mL glass vial and was dissolved in 4 mL of a 97:3 v/v mixture of acetone and DMSO to obtain concentrated stock solutions. […] The concentrated stock solutions obtained were diluted with 20 mL of an aqueous mixture containing acetone, water, isopropyl alcohol, DMSO, Agri-Dex crop oil concentrate, and X-77 surfactant in a 48:39:10:1.5:1.5:0.02 v/v ratio to obtain spray solutions containing the highest application rates. Additional application rates were obtained by serial dilution of 12 mL of the high rate solution into a solution containing 2 mL of 97:3 v/v mixture of acetone and DMSO and 10 mL of an aqueous mixture containing acetone, water, isopropyl alcohol, DMSO, Agri-Dex crop oil concentrate, and X-77 surfactant in a 48:39:10:1.5:1.5:0.02 v/v ratio to obtain ½×, ¼×, ⅛× and 1/16× rates of the high rate. Compound requirements are based upon a 12 mL application volume at a rate of 187 liters per hectare (L/ha). Formulated compounds were applied to the plant material with an overhead Mandel track sprayer equipped with 8002E nozzles calibrated to deliver 187 L/ha over an application area of 0.503 square meters at a spray height of 18 inches (43 cm) above the average plant canopy height. Control plants were sprayed in the same manner with the solvent blank.
(§3) The treated plants and control plants were placed in a greenhouse as described above and watered by subirrigation to prevent wash-off of the test compounds. After 21 dAYS, the condition of the test plants as compared with that of the untreated plants was determined visually and scored on a scale of 0 to 100 percent where 0 corresponds to no injury and 100 corresponds to complete kill and presented as indicated in Table A.
(§4) By applying the well-accepted probit analysis as described by J. Berkson in Journal of the American Statistical Society, 48, 565 (1953) and by D. Finney in “Probit Analysis” Cambridge University Press (1952), herbicidal injury of a specific compound at various rates can be used to calculate GR10, GR20, GR50, GR80 and GR90 values, which are defined as growth reduction factors that correspond to the effective dose of herbicide required to provide plant growth reduction (GR) of 10 percent, 20 percent, 50 percent, 80 percent and 90 percent, respectively. Probit analysis was applied to data collected from multiple dose rates of individual compounds utilizing the procedures explained in the following examples. The analysis of those dose rates is captured in the following tables.

KCHSC (kochia) = type: in vivo, Kochia scoparia
Experimental: as §1, §2, §3, §4

PAPRH (common poppy) = type: in vivo, Papaver rhoeas; conditions: for Visual Growth Reduction (%) 21 Days After Application, PAPRH: PAPRH common poppy (Papaver rhoeas), post-emergent
Experimental: as §1, §2, §3, §4

HORSS = type: in vivo; conditions: crop; for Visual Growth Reduction (%) 21 Days After Application, HORSS: HORSS barley (Hordeum vulgare), post-emergent
Experimental: as §1, §2, §3, §4

TRZSS = type: in vivo; conditions: crop; for Visual Growth Reduction (%) 21 Days After Application, TRZSS: TRZSS wheat (Triticum aestivum), post-emergent
Experimental: as §1, §2, §3, §4

SASKR (Russian thistle) = type: in vivo, Salsola tragus; conditions: for Visual Growth Reduction (%) 21 Days After Application, SASKR: SASKR Russian thistle (Salsola iberica), post-emergent
Experimental: as §1, §2, §3, §4

[1] = system: LAMPU (purple deadnettle); type: in vivo, Lamium purpureum; conditions: for Visual Growth Reduction (%) 21 Days After Application, LAMPU: LAMPU purple deadnettle (Lamium purpureum), post-emergent
Experimental: as §1, §2, §3, §4

[2] = system: VERPE (Persian speedwell); type: in vivo, Veronica persica; conditions: for Visual Growth Reduction (%) 21 Days After Application, VERPE: VERPE bird's-eye speedwell (Veronica persica), post-emergent
Experimental: as §1, §2, §3, §4

Q: Which “Visual Growth Reduction (%) 21 Days After Application, POLCO” value (POLCO (wild buckwheat); 17.5 g ai/ha) does the source give for `Cc1c(-c2cc(N)c(Cl)c(C(=O)O)n2)ccc(Cl)c1Cl` [Compound 28] here?
A: A (95-100)

Q: What about the “Visual Growth Reduction (%) 21 Days After Application, POLCO” value (POLCO (wild buckwheat); 35 g ai/ha) of the same compound?
A: A (95-100)

Q: What about the “Visual Growth Reduction (%) 21 Days After Application, POLCO” value (POLCO (wild buckwheat); 70 g ai/ha) of the same compound?
A: A (95-100)

Q: And the “GR50, POLCO” value (POLCO (wild buckwheat); POLCO, growth reduction of 50%, probit analysis, 21 days)?
A: 1 g ai/ha

Q: What about the “GR80, POLCO” value (POLCO (wild buckwheat); POLCO, growth reduction of 80%, probit analysis, 21 days) of the same compound?
A: 1 g ai/ha

Q: And the “GR90, POLCO” value (POLCO (wild buckwheat); POLCO, growth reduction of 90%, probit analysis, 21 days)?
A: 4 g ai/ha

Q: What about the pest or weed control at 17.5 g/ha (KCHSC (kochia); Bassia scoparia, post-emergence, 504 h, KCHSC kochia (Kochia scoparia), 17.5 g ai/ha, post-emergent, read-out: Visual Growth Reduction (%) 21 Days After Application, KCHSC) of the same compound?
A: 75 to 84%

Q: And the pest or weed control at 35 g/ha (KCHSC (kochia); Bassia scoparia, post-emergence, 504 h, KCHSC kochia (Kochia scoparia), 35 g ai/ha, post-emergent, read-out: Visual Growth Reduction (%) 21 Days After Application, KCHSC)?
A: 75 to 84%

Q: What about the pest or weed control at 70 g/ha (KCHSC (kochia); Bassia scoparia, post-emergence, 504 h, KCHSC kochia (Kochia scoparia), 70 g ai/ha, post-emergent, read-out: Visual Growth Reduction (%) 21 Days After Application, KCHSC) of the same compound?
A: 95 to 100%

Q: And the “GR50, KCHSC” value (KCHSC (kochia); KCHSC, growth reduction of 50%, probit analysis, 21 days)?
A: 3 g ai/ha

Q: And the “GR80, KCHSC” value (KCHSC (kochia); KCHSC, growth reduction of 80%, probit analysis, 21 days)?
A: 21 g ai/ha

Q: What about the “GR90, KCHSC” value (KCHSC (kochia); KCHSC, growth reduction of 90%, probit analysis, 21 days) of the same compound?
A: 54 g ai/ha

Q: And the “Visual Growth Reduction (%) 21 Days After Application, PAPRH” value (PAPRH (common poppy); 17.5 g ai/ha)?
A: G (0-29)

Q: And the “Visual Growth Reduction (%) 21 Days After Application, PAPRH” value (PAPRH (common poppy); 35 g ai/ha)?
A: G (0-29)

Q: What about the “Visual Growth Reduction (%) 21 Days After Application, PAPRH” value (PAPRH (common poppy); 70 g ai/ha) of the same compound?
A: G (0-29)

Q: What about the “GR50, PAPRH” value (PAPRH (common poppy); PAPRH, growth reduction of 50%, probit analysis, 21 days) of the same compound?
A: >140 g ai/ha

Q: What about the “GR80, PAPRH” value (PAPRH (common poppy); PAPRH, growth reduction of 80%, probit analysis, 21 days) of the same compound?
A: >140 g ai/ha

Q: What about the “GR90, PAPRH” value (PAPRH (common poppy); PAPRH, growth reduction of 90%, probit analysis, 21 days) of the same compound?
A: >140 g ai/ha

Q: And the “Visual Growth Reduction (%) 21 Days After Application, HORSS” value (HORSS; 17.5 g ai/ha)?
A: G (0-29)

Q: What about the “Visual Growth Reduction (%) 21 Days After Application, HORSS” value (HORSS; 35 g ai/ha) of the same compound?
A: F (30-44)

Q: What about the “Visual Growth Reduction (%) 21 Days After Application, HORSS” value (HORSS; 70 g ai/ha) of the same compound?
A: F (30-44)

Q: And the “GR10, HORSS” value (HORSS; HORSS barley, growth reduction of 10%, probit analysis, 21 days)?
A: 3 g ai/ha

Q: What about the “GR20, HORSS” value (HORSS; HORSS barley, growth reduction of 20%, probit analysis, 21 days) of the same compound?
A: 13 g ai/ha

Q: What about the “Visual Growth Reduction (%) 21 Days After Application, TRZSS” value (TRZSS; 17.5 g ai/ha) of the same compound?
A: G (0-29)

Q: And the “Visual Growth Reduction (%) 21 Days After Application, TRZSS” value (TRZSS; 35 g ai/ha)?
A: F (30-44)

Q: What about the “Visual Growth Reduction (%) 21 Days After Application, TRZSS” value (TRZSS; 70 g ai/ha) of the same compound?
A: E (45-59)

Q: What about the “GR10, TRZSS” value (TRZSS; TRZSS wheat, growth reduction of 10%, probit analysis, 21 days) of the same compound?
A: 16 g ai/ha

Q: What about the “GR20, TRZSS” value (TRZSS; TRZSS wheat, growth reduction of 20%, probit analysis, 21 days) of the same compound?
A: 25 g ai/ha

Q: What about the “Visual Growth Reduction (%) 21 Days After Application, SASKR” value (SASKR (Russian thistle); 17.5 g ai/ha) of the same compound?
A: C (75-84)

Q: And the “Visual Growth Reduction (%) 21 Days After Application, SASKR” value (SASKR (Russian thistle); 35 g ai/ha)?
A: B (85-94)

Q: What about the “Visual Growth Reduction (%) 21 Days After Application, SASKR” value (SASKR (Russian thistle); 70 g ai/ha) of the same compound?
A: A (95-100)

Q: And the “GR50, SASKR” value (SASKR (Russian thistle); SASKR, growth reduction of 50%, probit analysis, 21 days)?
A: 2 g ai/ha

Q: And the “GR80, SASKR” value (SASKR (Russian thistle); SASKR, growth reduction of 80%, probit analysis, 21 days)?
A: 17 g ai/ha

Q: What about the “GR90, SASKR” value (SASKR (Russian thistle); SASKR, growth reduction of 90%, probit analysis, 21 days) of the same compound?
A: 47 g ai/ha

Q: And the “Visual Growth Reduction (%) 21 Days After Application, LAMPU” value ([1]; 17.5 g ai/ha)?
A: A (95-100)

Q: And the “Visual Growth Reduction (%) 21 Days After Application, LAMPU” value ([1]; 35 g ai/ha)?
A: A (95-100)

Q: What about the “Visual Growth Reduction (%) 21 Days After Application, LAMPU” value ([1]; 70 g ai/ha) of the same compound?
A: A (95-100)

Q: What about the “GR50, LAMPU” value ([1]; LAMPU, growth reduction of 50%, probit analysis, 21 days) of the same compound?
A: 1 g ai/ha

Q: And the “GR80, LAMPU” value ([1]; LAMPU, growth reduction of 80%, probit analysis, 21 days)?
A: 1 g ai/ha

Q: And the “GR90, LAMPU” value ([1]; LAMPU, growth reduction of 90%, probit analysis, 21 days)?
A: 1 g ai/ha

Q: And the “Visual Growth Reduction (%) 21 Days After Application, VERPE” value ([2]; 17.5 g ai/ha)?
A: G (0-29)

Q: And the “Visual Growth Reduction (%) 21 Days After Application, VERPE” value ([2]; 35 g ai/ha)?
A: F (30-44)

Q: What about the “Visual Growth Reduction (%) 21 Days After Application, VERPE” value ([2]; 70 g ai/ha) of the same compound?
A: E (45-59)

Q: What about the “GR50, VERPE” value ([2]; VERPE, growth reduction of 50%, probit analysis, 21 days) of the same compound?
A: 63 g ai/ha

Q: And the “GR80, VERPE” value ([2]; VERPE, growth reduction of 80%, probit analysis, 21 days)?
A: 111 g ai/ha

Q: What about the “GR90, VERPE” value ([2]; VERPE, growth reduction of 90%, probit analysis, 21 days) of the same compound?
A: >140 g ai/ha
